# Measured values published in publication PMC6887723, “Design and Synthesis of 4-(Heterocyclic Substituted Amino)-1H-Pyrazole-3-Carboxamide Derivatives and Their Potent Activity against Acute Myeloid Leukemia (AML)” (International Journal of Molecular Sciences, 2019).
# How the values were obtained:
# [1] = tested on: phosphorylation of the retinoblastoma protein (Rb); assay: Western blot, phosphorylation of Rb in MV4-11 cells; type: cell-based, human; settings: MV4-11, 4 h; dose-dependent; at 1 μM comparable with AT-7519
# Method: (§1) Analysis of pFLT3, pSTAT5, pERK, pAKT, and pRb in vitro: to determine the levels of pFLT3, pSTAT5, pERK, pAKT, and pRb, cells were seeded in a 6-well cell culture plate at a density of 400,000 cells per well for MV4-11 in a total volume of 1800 μL and incubated overnight in medium containing 10% fetal bovine serum (Life Technologies, Rockville, MD, USA). Then 200 μL of serially diluted compounds were added to each well the next day. Cell lysates were harvested after 4 h and pFLT3, pSTAT5, pERK, pAKT, or pRb were quantified using assay kits for FLT3/Phospho-FLT3Tyr589/591, pSTAT5 (Tyr694)/total STAT5, pRb (Ser807)/total Rb (Nanjin keyGen Biotech Company, Nanjing, China) following the manufacturer’s protocols.
# BaF3 (FLT3 (ITD-F691L)) = assay: Antiproliferative activity in BaF3 cells transformed with FLT3-ITD-F691L; type: cell-based; settings: Mus musculus, Table S2
# CDK4 = target: T1, CDK4 (Homo sapiens, UniProt P11802); assay: CDK4 kinase activity assay (Hot-Spot); type: biochemical; settings: 10 μM ATP; mean ± SD, three independent experiments
# T1 construct: purchased Reaction Biology Corp
# Method: (§2) Activities of kinases were determined using Hot-SpotSM kinase assay which was performed by Reaction Biology Corp. (Malvern PA, USA) as described previously.
# JNK1 = target: T2, JNK1 (Homo sapiens, UniProt P45983); assay: Hot-Spot kinase profiling; type: biochemical; settings: read-out: % Enzyme Activity (Relative to DMSO Controls) JNK1
# T2 construct: purchased Reaction Biology Corp. (Malvern PA, USA)
# Method: as §2
# BRAF = target: T3, BRAF (Homo sapiens, UniProt P15056); assay: Hot-Spot kinase profiling; type: biochemical; settings: read-out: % Enzyme Activity (Relative to DMSO Controls) BRAF
# T3 construct: purchased Reaction Biology Corp. (HotSpot kinase assay)
# Method: as §2
# CDK5/p35 = target: T4, CDK5/p35 (Homo sapiens, UniProt Q00535); assay: Hot-Spot kinase profiling; type: biochemical
# T4 construct: purchased Reaction Biology Corp
# Method: as §2
# CDK4/cyclin D1 = target: T5, CDK4/cyclin D1 (Homo sapiens, UniProt P11802); assay: Hot-Spot kinase profiling; type: biochemical
# T5 construct: purchased Reaction Biology Corp
# Method: as §2
# JAK2 = target: T6, JAK2 (Homo sapiens, UniProt O60674); assay: Hot-Spot kinase profiling; type: biochemical; settings: read-out: % Enzyme Activity (Relative to DMSO Controls) JAK2
# T6 construct: purchased Reaction Biology Corp
# Method: as §2
# CDK2/cyclin A = target: T7, CDK2/cyclin A (Homo sapiens, UniProt P24941); assay: Hot-Spot kinase profiling; type: biochemical
# T7 construct: purchased Reaction Biology Corp
# Method: as §2
# CDK1/cyclin B = target: T8, CDK1/cyclin B (Homo sapiens, UniProt P06493); assay: Hot-Spot kinase profiling; type: biochemical
# T8 construct: purchased Reaction Biology Corp
# Method: as §2
# FLT3 (R595_E596insEY) = target: T9, FLT3 (R595_E596insEY) (Homo sapiens, UniProt P36888, INS595EY); assay: Hot-Spot kinase profiling; type: biochemical
# T9 construct: purchased Reaction Biology Corp
# Method: as §2
# CDK6/cyclin D1 = target: T10, CDK6/cyclin D1 (Homo sapiens, UniProt Q00534); assay: Hot-Spot kinase profiling; type: biochemical
# T10 construct: purchased Reaction Biology Corp
# Method: as §2
# AKT1 = target: T11, AKT1 (Homo sapiens, UniProt P31749); assay: Hot-Spot kinase profiling; type: biochemical; settings: read-out: % Enzyme Activity (Relative to DMSO Controls) AKT1
# T11 construct: purchased Reaction Biology Corp. (HotSpot kinase assay)
# Method: as §2
# CHK2 = target: T12, CHK2 (Homo sapiens, UniProt O96017); assay: Hot-Spot kinase profiling; type: biochemical; settings: read-out: % Enzyme Activity (Relative to DMSO Controls) CHK2
# T12 construct: purchased Reaction Biology Corp. (HotSpot kinase assay)
# Method: as §2
# FLT3 (F594_R595insREY) = target: T13, FLT3 (F594_R595insREY) (Homo sapiens, UniProt P36888, INS594REY); assay: Hot-Spot kinase profiling; type: biochemical
# T13 construct: purchased Reaction Biology Corp
# Method: as §2
# ALK = target: T14, ALK (Homo sapiens, UniProt Q9UM73); assay: Hot-Spot kinase profiling; type: biochemical; settings: read-out: % Enzyme Activity (Relative to DMSO Controls) ALK
# T14 construct: purchased Reaction Biology Corp. (HotSpot kinase assay)
# Method: as §2
# CDK7/cyclin H = target: T15, CDK7/cyclin H (Homo sapiens, UniProt P50613); assay: Hot-Spot kinase profiling; type: biochemical
# T15 construct: purchased Reaction Biology Corp
# Method: as §2
# BTK = target: T16, BTK (Homo sapiens, UniProt Q06187); assay: Hot-Spot kinase profiling; type: biochemical; settings: read-out: % Enzyme Activity (Relative to DMSO Controls) BTK
# T16 construct: purchased Reaction Biology Corp. (HotSpot kinase assay)
# Method: as §2
# MV4-11 cells = assay: Cell apoptosis assay (Annexin V-FITC/PI, flow cytometry); type: cell-based, human; settings: MV4-11, 2 μM, 24 h
# Method: The apoptosis of MV4-11 cells was determined by Annexin V-FITC/PI assay. Annexin V binds to phosphatidylserine, which is exposed on the cell membrane and is one of the earliest indicators of cellular apoptosis. PI (Propidium Iodide) is used as a DNA stain for both flow cytometry to evaluate cell viability or DNA content in cell cycle analysis and microscopy to visualize the nucleus and other DNA containing organelles. It can be used to differentiate necrotic, apoptotic, and normal cells. Cells (2 × 10^5) were seeded in 6-well plate and were treated with varying concentrations of inhibitor for 24 h. MV4-11 cells were collected and incubated with FITC-conjugated Annexin V (Nanjing keyGen Biotech Company, Nanjing, China). The nuclei were then counterstained with PI. After the dual staining, the cells were screened by a FAC Scan flow cytometer (FACS Calibun, Becton Dickinson, Nanjing, China). The upper left corner of the quadrant represents debris, lower left are live cells, upper right are advanced apoptotic or necrotic cells and lower right are apoptotic cells.
# [2] = tested on: phosphorylation of STAT5/AKT/ERK; assay: Western blot, phosphorylation of STAT5/AKT/ERK in MV4-11 cells; type: cell-based, human; settings: MV4-11, 4 h, 1 μM
# Method: as §1
# T4 sequence (Q00535 whole entry): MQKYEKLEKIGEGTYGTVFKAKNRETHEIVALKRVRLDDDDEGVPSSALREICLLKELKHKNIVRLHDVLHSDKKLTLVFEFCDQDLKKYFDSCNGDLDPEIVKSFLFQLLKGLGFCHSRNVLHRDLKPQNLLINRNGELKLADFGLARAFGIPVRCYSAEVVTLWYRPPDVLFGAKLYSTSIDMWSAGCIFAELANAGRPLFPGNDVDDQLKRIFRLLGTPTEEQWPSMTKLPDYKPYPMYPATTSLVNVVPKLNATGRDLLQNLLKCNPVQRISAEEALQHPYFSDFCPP
# T4 sequence (Q15078 whole entry partner): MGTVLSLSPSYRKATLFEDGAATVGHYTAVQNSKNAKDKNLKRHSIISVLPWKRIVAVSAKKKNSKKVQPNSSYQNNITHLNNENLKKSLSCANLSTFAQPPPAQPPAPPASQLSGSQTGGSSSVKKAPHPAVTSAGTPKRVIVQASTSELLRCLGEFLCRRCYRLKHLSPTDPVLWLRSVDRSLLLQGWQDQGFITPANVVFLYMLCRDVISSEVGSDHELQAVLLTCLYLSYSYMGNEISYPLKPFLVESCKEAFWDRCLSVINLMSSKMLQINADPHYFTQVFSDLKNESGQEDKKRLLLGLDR
# T9 sequence (P36888 with tags, fused parts or gaps INS595EY limits assumed): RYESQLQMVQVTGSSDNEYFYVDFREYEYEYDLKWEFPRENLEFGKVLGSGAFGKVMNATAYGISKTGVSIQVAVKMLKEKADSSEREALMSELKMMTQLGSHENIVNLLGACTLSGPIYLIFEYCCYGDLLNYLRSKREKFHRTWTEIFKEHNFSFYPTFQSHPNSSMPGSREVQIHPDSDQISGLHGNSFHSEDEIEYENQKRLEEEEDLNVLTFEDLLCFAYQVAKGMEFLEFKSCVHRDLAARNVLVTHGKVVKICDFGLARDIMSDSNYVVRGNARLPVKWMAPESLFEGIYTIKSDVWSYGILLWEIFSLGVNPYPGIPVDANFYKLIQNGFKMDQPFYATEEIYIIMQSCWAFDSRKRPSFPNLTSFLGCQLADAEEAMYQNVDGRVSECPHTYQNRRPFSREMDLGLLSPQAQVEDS
# T13 sequence (P36888 with tags, fused parts or gaps INS594REY limits assumed): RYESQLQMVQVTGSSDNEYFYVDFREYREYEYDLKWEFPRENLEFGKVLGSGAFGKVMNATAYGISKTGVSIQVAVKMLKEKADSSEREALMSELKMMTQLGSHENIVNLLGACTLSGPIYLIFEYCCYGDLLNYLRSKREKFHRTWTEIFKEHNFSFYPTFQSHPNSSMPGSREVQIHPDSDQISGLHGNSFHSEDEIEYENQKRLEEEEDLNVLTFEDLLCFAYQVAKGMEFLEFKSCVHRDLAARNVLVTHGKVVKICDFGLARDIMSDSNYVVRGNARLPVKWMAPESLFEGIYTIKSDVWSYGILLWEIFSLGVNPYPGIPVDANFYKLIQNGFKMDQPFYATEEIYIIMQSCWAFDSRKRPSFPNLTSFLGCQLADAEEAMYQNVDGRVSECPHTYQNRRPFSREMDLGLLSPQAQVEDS
# T5 sequence (P11802 whole entry): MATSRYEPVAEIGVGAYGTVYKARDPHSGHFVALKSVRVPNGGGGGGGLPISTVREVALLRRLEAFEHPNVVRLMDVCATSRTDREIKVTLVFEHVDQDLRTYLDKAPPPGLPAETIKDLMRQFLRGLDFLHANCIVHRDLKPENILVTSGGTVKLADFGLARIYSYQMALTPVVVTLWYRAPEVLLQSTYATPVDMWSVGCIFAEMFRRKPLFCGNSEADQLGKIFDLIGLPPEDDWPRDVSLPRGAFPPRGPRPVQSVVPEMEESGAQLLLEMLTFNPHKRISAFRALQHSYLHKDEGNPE
# T5 sequence (P24385 whole entry partner): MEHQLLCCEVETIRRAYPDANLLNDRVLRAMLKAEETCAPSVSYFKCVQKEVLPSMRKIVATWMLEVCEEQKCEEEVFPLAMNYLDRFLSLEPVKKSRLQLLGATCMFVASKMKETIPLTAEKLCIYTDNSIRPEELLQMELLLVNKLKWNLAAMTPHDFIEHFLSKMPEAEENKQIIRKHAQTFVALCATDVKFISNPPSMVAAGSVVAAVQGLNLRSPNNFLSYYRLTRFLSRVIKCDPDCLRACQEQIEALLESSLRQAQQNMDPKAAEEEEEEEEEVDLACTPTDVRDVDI
# T8 sequence (P06493 whole entry): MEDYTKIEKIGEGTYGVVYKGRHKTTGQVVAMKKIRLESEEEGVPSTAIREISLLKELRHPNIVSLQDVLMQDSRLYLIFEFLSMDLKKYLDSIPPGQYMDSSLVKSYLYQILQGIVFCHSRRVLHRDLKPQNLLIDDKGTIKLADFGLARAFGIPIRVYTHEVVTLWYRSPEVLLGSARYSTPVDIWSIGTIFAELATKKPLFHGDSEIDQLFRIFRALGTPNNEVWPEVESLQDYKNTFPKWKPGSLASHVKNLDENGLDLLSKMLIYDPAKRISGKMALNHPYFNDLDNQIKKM
# T8 sequence (P14635 whole entry partner): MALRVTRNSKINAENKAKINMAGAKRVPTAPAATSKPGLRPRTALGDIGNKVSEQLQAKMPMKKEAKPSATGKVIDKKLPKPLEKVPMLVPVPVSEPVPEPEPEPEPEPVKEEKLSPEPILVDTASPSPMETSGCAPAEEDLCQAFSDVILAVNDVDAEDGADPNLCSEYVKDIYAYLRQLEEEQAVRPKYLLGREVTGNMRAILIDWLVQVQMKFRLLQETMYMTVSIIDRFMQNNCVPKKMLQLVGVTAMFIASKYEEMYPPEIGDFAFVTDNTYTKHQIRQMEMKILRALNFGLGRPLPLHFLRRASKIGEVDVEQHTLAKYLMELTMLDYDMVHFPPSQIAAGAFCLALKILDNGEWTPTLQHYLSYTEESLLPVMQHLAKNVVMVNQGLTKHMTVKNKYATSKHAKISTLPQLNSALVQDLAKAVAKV
# T10 sequence (Q00534 whole entry): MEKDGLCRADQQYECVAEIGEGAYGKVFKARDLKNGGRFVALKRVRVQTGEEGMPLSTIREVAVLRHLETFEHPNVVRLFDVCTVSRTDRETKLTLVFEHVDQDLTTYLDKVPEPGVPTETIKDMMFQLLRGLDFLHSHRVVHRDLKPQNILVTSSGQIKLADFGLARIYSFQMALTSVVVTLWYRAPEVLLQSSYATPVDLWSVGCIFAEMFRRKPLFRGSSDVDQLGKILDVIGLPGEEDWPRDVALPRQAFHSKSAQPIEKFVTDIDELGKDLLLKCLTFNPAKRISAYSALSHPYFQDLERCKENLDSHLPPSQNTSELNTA
# T10 sequence (P24385 whole entry partner): as the sequence (P24385 whole entry partner) above
# T15 sequence (P50613 whole entry): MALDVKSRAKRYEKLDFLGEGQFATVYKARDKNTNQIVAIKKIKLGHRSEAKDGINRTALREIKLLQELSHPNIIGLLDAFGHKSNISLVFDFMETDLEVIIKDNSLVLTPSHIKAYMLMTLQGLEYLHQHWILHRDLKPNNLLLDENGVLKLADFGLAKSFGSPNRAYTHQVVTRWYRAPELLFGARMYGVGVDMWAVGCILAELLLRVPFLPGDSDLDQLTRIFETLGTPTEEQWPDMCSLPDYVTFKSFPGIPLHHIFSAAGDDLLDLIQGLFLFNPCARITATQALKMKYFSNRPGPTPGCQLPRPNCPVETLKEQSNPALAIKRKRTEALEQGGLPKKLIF
# T15 sequence (P51946 whole entry partner): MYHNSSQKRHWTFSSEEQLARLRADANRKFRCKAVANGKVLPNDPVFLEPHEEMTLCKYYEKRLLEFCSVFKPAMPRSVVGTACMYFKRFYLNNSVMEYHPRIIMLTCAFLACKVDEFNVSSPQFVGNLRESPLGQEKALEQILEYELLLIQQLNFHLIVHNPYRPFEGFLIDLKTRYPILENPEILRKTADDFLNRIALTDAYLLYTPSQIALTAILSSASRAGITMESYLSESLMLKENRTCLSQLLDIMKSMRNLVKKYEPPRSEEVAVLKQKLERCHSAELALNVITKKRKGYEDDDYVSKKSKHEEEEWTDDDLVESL
# T15 sequence (P51948 whole entry partner): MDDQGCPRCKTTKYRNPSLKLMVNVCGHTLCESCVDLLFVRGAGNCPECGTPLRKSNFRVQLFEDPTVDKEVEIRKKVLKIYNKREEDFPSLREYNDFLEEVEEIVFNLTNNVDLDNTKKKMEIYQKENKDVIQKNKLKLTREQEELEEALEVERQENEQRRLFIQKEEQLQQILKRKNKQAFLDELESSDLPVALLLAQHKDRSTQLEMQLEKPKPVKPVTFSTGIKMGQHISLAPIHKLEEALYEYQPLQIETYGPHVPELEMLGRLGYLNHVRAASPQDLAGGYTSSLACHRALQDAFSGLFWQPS
# T3 sequence (P15056 whole entry): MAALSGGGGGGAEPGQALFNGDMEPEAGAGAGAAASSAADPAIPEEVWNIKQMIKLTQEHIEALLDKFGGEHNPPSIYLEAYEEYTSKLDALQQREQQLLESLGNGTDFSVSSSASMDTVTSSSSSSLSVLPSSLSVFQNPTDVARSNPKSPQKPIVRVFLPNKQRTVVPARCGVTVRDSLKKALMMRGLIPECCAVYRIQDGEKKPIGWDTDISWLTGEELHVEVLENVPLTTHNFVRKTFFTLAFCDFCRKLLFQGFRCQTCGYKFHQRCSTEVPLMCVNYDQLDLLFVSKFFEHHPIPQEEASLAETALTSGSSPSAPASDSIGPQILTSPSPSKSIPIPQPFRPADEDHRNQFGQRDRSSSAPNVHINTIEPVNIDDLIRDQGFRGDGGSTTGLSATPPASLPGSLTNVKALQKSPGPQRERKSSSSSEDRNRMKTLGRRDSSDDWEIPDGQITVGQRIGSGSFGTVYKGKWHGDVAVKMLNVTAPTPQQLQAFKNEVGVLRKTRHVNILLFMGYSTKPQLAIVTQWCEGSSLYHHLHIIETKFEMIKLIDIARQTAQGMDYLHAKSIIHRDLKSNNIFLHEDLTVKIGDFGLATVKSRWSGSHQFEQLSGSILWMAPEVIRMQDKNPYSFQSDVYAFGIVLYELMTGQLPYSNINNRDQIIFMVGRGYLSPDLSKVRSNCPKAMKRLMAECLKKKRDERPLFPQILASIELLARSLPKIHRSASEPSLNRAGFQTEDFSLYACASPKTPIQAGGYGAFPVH
structure (smiles),measurement,setting,value
O=C(Nc1ccc(N2CCNCC2)cc1)c1n[nH]cc1Nc1ncnc2sc3c(c12)CCC3 [Compound 8t],phosphorylation of the retinoblastoma protein (Rb),[1],inhibited
same,IC50,BaF3 (FLT3 (ITD-F691L)),21.9 nM
same,IC50,CDK4,0.77 ± 0.007 nM
same,remaining activity at 0.15 µM,JNK1,39.2%
same,remaining activity at 0.15 µM,BRAF,77.6%
same,remaining activity at 0.15 µM,"CDK5/p35; 0.15 μM, read-out: % Enzyme Activity (Relative to DMSO Controls) CDK5/p35",9.6%
same,IC50,CDK5/p35; Table 5 kinase profiling,9.64 ± 0.81 nM
same,remaining activity at 0.15 µM,"CDK4/cyclin D1; 0.15 μM, read-out: % Enzyme Activity (Relative to DMSO Controls) CDK4/cyclin D1",1.56%
same,IC50,CDK4/cyclin D1; Table 5 kinase profiling,0.78 ± 0.04 nM
same,remaining activity at 0.15 µM,JAK2,32%
same,remaining activity at 0.15 µM,"CDK2/cyclin A; 0.15 μM, read-out: % Enzyme Activity (Relative to DMSO Controls) CDK2/cyclin A",4.01%
same,IC50,CDK2/cyclin A; Table 5 kinase profiling,2.56 ± 0.31 nM
same,remaining activity at 0.15 µM,"CDK1/cyclin B; 0.15 μM, read-out: % Enzyme Activity (Relative to DMSO Controls) CDK1/cyclin B",18.2%
same,IC50,CDK1/cyclin B; Table 5 kinase profiling,138 ± 1.24 nM
same,remaining activity at 0.15 µM,"FLT3 (R595_E596insEY); 0.15 μM, read-out: % Enzyme Activity (Relative to DMSO Controls) FLT3 (R595_E596insEY)",0.44%
same,IC50,FLT3 (R595_E596insEY); Table 5 kinase profiling,1.59 ± 0.14 nM
same,remaining activity at 0.15 µM,"CDK6/cyclin D1; 0.15 μM, read-out: % Enzyme Activity (Relative to DMSO Controls) CDK6/cyclin D1",1.33%
same,IC50,CDK6/cyclin D1; Table 5 kinase profiling,0.59 ± 0.09 nM
same,remaining activity at 0.15 µM,AKT1,122%
same,remaining activity at 0.15 µM,CHK2,38.4%
same,remaining activity at 0.15 µM,"FLT3 (F594_R595insREY); 0.15 μM, read-out: % Enzyme Activity (Relative to DMSO Controls) FLT3 (F594_R595insREY)",0.8%
same,IC50,FLT3 (F594_R595insREY); Table 5 kinase profiling,1.38 ± 0.11 nM
same,remaining activity at 0.15 µM,ALK,16.6%
same,remaining activity at 0.15 µM,"CDK7/cyclin H; 0.15 μM, read-out: % Enzyme Activity (Relative to DMSO Controls) CDK7/cyclin H",19.9%
same,IC50,CDK7/cyclin H; Table 5 kinase profiling,21.3 ± 1.01 nM
same,remaining activity at 0.15 µM,BTK,97.1%
same,apoptosis rate,MV4-11 cells,51.36%
same,phosphorylation of STAT5/AKT/ERK,[2],completely blocked
